One may read the pIC50 as the IC50 on a negative log10 scale, so that one unit is a factor of ten.

Data on 20 compounds can be found in US10238638B2, “Benzothiazole and benzothiophene compounds” (Bristol-Myers Squibb Company, priority 2015, dated 2019).

Molecules are shown by their SMILES. pIC50: −log10 of the molar value.

The target in series [1] is PAR4 (Homo sapiens (Human), UniProt Q96RI0). The series can be described thus: FLIPR assay in PAR4-expressing HEK293 cells (calcium mobilization). In kind it is cell-based. The settings on record: H-Ala-Phe(4-F)-Pro-Gly-Trp-Leu-Val-Lys-Asn-Gly-NH2-induced calcium mobilization, PAR4 antagonist activity. From the text: The FLIPR assay is an exemplary in vitro assay for measuring the activity of the PAR4 antagonists of the present invention. In this assay, intracellular calcium mobilization is induced in PAR4 expressing cells by a PAR4 agonist and calcium mobilization is monitored.
Sequence of PAR4 (Q96RI0 18-385): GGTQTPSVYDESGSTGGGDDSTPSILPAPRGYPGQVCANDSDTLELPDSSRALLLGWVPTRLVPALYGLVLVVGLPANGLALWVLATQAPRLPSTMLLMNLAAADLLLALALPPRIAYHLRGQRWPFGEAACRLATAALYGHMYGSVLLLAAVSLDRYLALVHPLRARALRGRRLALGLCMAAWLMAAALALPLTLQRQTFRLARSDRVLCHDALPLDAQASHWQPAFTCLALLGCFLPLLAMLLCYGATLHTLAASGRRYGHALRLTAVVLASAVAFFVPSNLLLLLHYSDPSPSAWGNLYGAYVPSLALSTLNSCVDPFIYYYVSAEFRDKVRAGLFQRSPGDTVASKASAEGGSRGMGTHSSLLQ
HEK293 cells stably expressing PAR4 were generated by a standard method of transfection of human PAR4 (F2R23) cDNA expression vector and selected based on PAR4 protein expression or mRNA expression. […] Therefore, the same cells were also used to determine selectivity against PAR1 and agonist activity for both receptors.
FLIPR-based calcium mobilization assay in HEK293 cells was used to measure PAR4 antagonism, agonism, and selectivity against PAR1. […] Counter screens for agonist activity and PAR1 antagonist activity were also performed. Briefly, PAR1/PAR4-expressing HEK293 cells were grown in DMEM (Life Technology, Grand Island, N.Y.) containing 10% heat-inactivated FBS, 1% Penicillin-Streptomycin, 10 μg/mL blasticidin, and 100 μg/mL Zeocin at 37° C. with 5% CO2. Cells were plated overnight prior to the experiment in a black 384-well Purecoat Amine clear bottom plate (Becton Dickinson Biosciences, San Jose, Calif.) at 10,000 cells/well in 30 μL growth medium and incubated in a humidified chamber at 37° C. with 5% CO2 overnight. Prior to compound addition, the cell medium was replaced with 40 μL of 1× calcium and magnesium-containing Hank's Balanced Saline Solution (HBSS) (with 20 mM HEPES) and 1:1000 diluted fluorescent calcium indicator (Codex Biosolutions, Gaithersburg, Md.). After a 30 minute incubation period at 37° C. and a further 30 minute incubation and equilibration period at room temperature, 20 μL test compound (diluted in 1×HBSS buffer) was added at various concentrations at 0.17% dimethyl sulfoxide (DMSO) final concentration. Changes in fluorescence intensity were measured using a Functional Drug Screening System (FDSS, Hamamatsu, Japan) to determine agonist activities. The cells were then incubated for 30 minutes at room temperature followed by addition of 20 μL of agonist peptide for antagonist activity measurement. […] Compound potency was derived from 11-point concentration-response curves.
On the technique in general: A change in cytosolic calcium serves as a functional read-out for many receptors and channels.

Series [2] concerns the target PAR1 (Homo sapiens (Human), UniProt P25116). As to conditions: ACS patients, phase III; cited from earlier work.

Sequence of PAR1 (P25116 22-425): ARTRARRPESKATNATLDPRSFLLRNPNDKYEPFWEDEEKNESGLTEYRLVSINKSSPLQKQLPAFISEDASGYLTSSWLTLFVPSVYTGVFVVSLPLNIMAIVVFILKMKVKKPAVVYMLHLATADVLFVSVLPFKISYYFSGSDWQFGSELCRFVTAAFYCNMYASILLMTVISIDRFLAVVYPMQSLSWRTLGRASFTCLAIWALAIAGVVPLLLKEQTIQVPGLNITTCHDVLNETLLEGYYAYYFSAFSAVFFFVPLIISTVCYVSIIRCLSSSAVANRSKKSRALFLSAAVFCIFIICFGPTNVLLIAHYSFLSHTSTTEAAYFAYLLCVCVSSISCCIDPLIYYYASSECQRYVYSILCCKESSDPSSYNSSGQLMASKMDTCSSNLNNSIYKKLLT

For `COc1cc(OCc2csc(-c3ccc(C(=O)N(C)C)cc3)n2)c2sc(-c3cn4nc(C5CC5)sc4n3)nc2c1` [Example 28, 4-(4-(((2-(2-Cyclopropylimidazo[2,1-b][1,3,4]thiadiazol-6-yl)-5-methoxybenzo[d]thiazol-7-yl)oxy)methyl)thiazol-2-yl)-N,N-dimethylbenzamide], in series [1], the pIC50 was 5.43. Consider `COc1cc(OCc2csc(-c3ccc(C(=O)N(CCO)C(C)(C)C)cc3)n2)c2sc(-c3cn4nc(C5CC5)sc4n3)nc2c1` [Example 29, N-(tert-Butyl)-4-(4-(((2-(2-cyclopropylimidazo[2,1-b][1,3,4]thiadiazol-6-yl)-5-methoxybenzo[d]thiazol-7-yl)oxy)methyl)thiazol-2-yl)-N-(2-hydroxyethyl)benzamide], for which, in series [1], the pIC50 was 4.10. With `CCc1nn2cc(-c3nc4cc(OC)cc(OCc5csc(-c6ccc(C(=O)OC(C)(C)C)cc6)n5)c4s3)nc2s1` [Example 31, tert-Butyl 4-(4-(((2-(2-ethylimidazo[2,1-b][1,3,4]thiadiazol-6-yl)-5-methoxybenzo[d]thiazol-7-yl)oxy)methyl)thiazol-2-yl)benzoate], the pIC50 in series [1] is 5.70. As for `CCc1nn2cc(-c3nc4cc(OC)cc(OCc5csc(-c6ccc(C(=O)NCC(C)(C)CO)cc6)n5)c4s3)nc2s1` [Example 32, 4-(4-(((2-(2-Ethylimidazo[2,1-b][1,3,4]thiadiazol-6-yl)-5-methoxybenzo[d]thiazol-7-yl)oxy)methyl)thiazol-2-yl)-N-(3-hydroxy-2,2-dimethylpropyl)benzamide], the pIC50 in series [1] is 5.85. For `CCc1nn2cc(-c3nc4cc(OC)cc(OCc5csc(-c6ccc(C(=O)N7CCC[C@H](O)C7)cc6)n5)c4s3)nc2s1` [Example 33, (S)-(4-(4-(((2-(2-Ethylimidazo[2,1-b][1,3,4]thiadiazol-6-yl)-5-methoxybenzo[d]thiazol-7-yl)oxy)methyl)thiazol-2-yl)phenyl)(3-hydroxypiperidin-1-yl)methanone], the negative logarithm of the IC50 (pIC50) in series [1] is 5.44. The same measure, in the same setting: then `CCc1nn2cc(-c3nc4cc(OC)cc(OCc5csc(-c6ccc(C(=O)N(C)[C@H]7CCOC7)cc6)n5)c4s3)nc2s1` [Example 34, (S)-4-(4-(((2-(2-Ethylimidazo[2,1-b][1,3,4]thiadiazol-6-yl)-5-methoxybenzo[d]thiazol-7-yl)oxy)methyl)thiazol-2-yl)-N-methyl-N-(tetrahydrofuran-3-yl)benzamide], with 5.89; and `CCc1nn2cc(-c3nc4cc(OC)cc(OCc5csc(-c6ccc(C(=O)N(C)C)cc6)n5)c4s3)nc2s1` [Example 35, 4-(4-(((2-(2-Ethylimidazo[2,1-b][1,3,4]thiadiazol-6-yl)-5-methoxybenzo[d]thiazol-7-yl)oxy)methyl)thiazol-2-yl)-N,N-dimethylbenzamide], with 5.92. As for `CCc1nn2cc(-c3nc4cc(OC)cc(OCc5csc(-c6ccc(C(=O)N7CCC(CCO)CC7)cc6)n5)c4s3)nc2s1` [Example 36, (4-(4-(((2-(2-Ethylimidazo[2,1-b][1,3,4]thiadiazol-6-yl)-5-methoxybenzo[d]thiazol-7-yl)oxy)methyl)thiazol-2-yl)phenyl)(4-(2-hydroxyethyl)piperidin-1-yl)methanone], the pIC50 in series [1] was 5.89. Still for that read-out and setting: then `COc1cc(OCc2nc(-c3ccc(C(=O)N4CCC[C@H](O)C4)cc3)sc2C)c2sc(-c3cn4nc(C)sc4n3)nc2c1` [Example 38, (S)-(3-Hydroxypiperidin-1-yl)(4-(4-(((5-methoxy-2-(2-methylimidazo[2,1-b][1,3,4]thiadiazol-6-yl)benzo[d]thiazol-7-yl)oxy)methyl)-5-methylthiazol-2-yl)phenyl)methanone], with 5.80; and `COc1cc(OCc2nc(-c3ccc(C(=O)N(C)[C@H]4CCOC4)cc3)sc2C)c2sc(-c3cn4nc(C)sc4n3)nc2c1` [Example 39, (S)-4-(4-(((5-Methoxy-2-(2-methylimidazo[2,1-b][1,3,4]thiadiazol-6-yl)benzo[d]thiazol-7-yl)oxy)methyl)-5-methylthiazol-2-yl)-N-methyl-N-(tetrahydrofuran-3-yl)benzamide], with 5.74. Still for that read-out and setting: then `COc1cc(OCc2nc(-c3ccc(C(=O)NCC(C)(C)CO)cc3)sc2C)c2sc(-c3cn4nc(C)sc4n3)nc2c1` [Example 40, N-(3-Hydroxy-2,2-dimethylpropyl)-4-(4-(((5-methoxy-2-(2-methylimidazo[2,1-b][1,3,4]thiadiazol-6-yl)benzo[d]thiazol-7-yl)oxy)methyl)-5-methylthiazol-2-yl)benzamide], with 5.80; and `COc1cc(OCc2nc(-c3ccc(C(=O)N(C)C)cc3)sc2C)c2sc(-c3cn4nc(C)sc4n3)nc2c1` [Example 41, 4-(4-(((5-Methoxy-2-(2-methylimidazo[2,1-b][1,3,4]thiadiazol-6-yl)benzo[d]thiazol-7-yl)oxy)methyl)-5-methylthiazol-2-yl)-N,N-dimethylbenzamide], with 5.77. In the case of `COc1cc(OCc2nc(-c3ccc(C(=O)N4CCC(CCO)CC4)cc3)sc2C)c2sc(-c3cn4nc(C)sc4n3)nc2c1` [Example 42, (4-(2-Hydroxyethyl)piperidin-1-yl)(4-(4-(((5-methoxy-2-(2-methylimidazo[2,1-b][1,3,4]thiadiazol-6-yl)benzo[d]thiazol-7-yl)oxy)methyl)-5-methylthiazol-2-yl)phenyl)methanone], the negative-log IC50 (pIC50) in series [1] was 5.96. `COc1cc(OCc2csc(-c3ccc(C(=O)N(C)C)cc3)n2)c2sc(-c3cn4nc(C)ccc4n3)nc2c1` [Example 44, 4-(4-(((5-Methoxy-2-(6-methylimidazo[1,2-b]pyridazin-2-yl)benzo[d]thiazol-7-yl)oxy)methyl)thiazol-2-yl)-N,N-dimethylbenzamide]: in series [1], the pIC50 is 5.59. `COc1cc(OCc2csc(-c3ccccc3)n2)c2sc(-c3cn4nc(C)ccc4n3)nc2c1` [Example 45, 5-Methoxy-2-(6-methylimidazo[1,2-b]pyridazin-2-yl)-7-((2-phenylthiazol-4-yl)methoxy)benzo[d]thiazole]: the pIC50 in series [1] is 5.74. Same read-out and setting: in the case of `COc1cc(OCc2csc(N3CCOCC3)n2)c2sc(-c3cn4nc(C)ccc4n3)nc2c1` [Example 46, 4-(4-(((5-Methoxy-2-(6-methylimidazo[1,2-b]pyridazin-2-yl)benzo[d]thiazol-7-yl)oxy)methyl)thiazol-2-yl)morpholine] it was 5.60. The same measure, in the same setting: then `COc1cc(OCc2csc(-c3ccc(C(=O)N(C)[C@H]4CCOC4)cc3)n2)c2sc(-c3cn4nc(C)ccc4n3)nc2c1` [Example 47, (S)-4-(4-(((5-Methoxy-2-(6-methylimidazo[1,2-b]pyridazin-2-yl)benzo[d]thiazol-7-yl)oxy)methyl)thiazol-2-yl)-N-methyl-N-(tetrahydrofuran-3-yl)benzamide], with 5.19; and `COc1cc(OCc2csc(-c3ccc(C(=O)N4CCC[C@H](O)C4)cc3)n2)c2sc(-c3cn4nc(C)ccc4n3)nc2c1` [Example 48, (S)-(3-Hydroxypiperidin-1-yl)(4-(4-(((5-methoxy-2-(6-methylimidazo[1,2-b]pyridazin-2-yl)benzo[d]thiazol-7-yl)oxy)methyl)thiazol-2-yl)phenyl)methanone], with 5.00.

As for `COc1cc(OCc2csc(-c3ccc(C(=O)N4CCC(C)(CO)CC4)cc3)n2)c2sc(-c3cn4nc(C)sc4n3)nc2c1` [Example 67], the negative-log IC50 (pIC50) in series [1] was 6.03. `CCOC(=O)N[C@@H]1CC[C@@H]2[C@@H](C1)C[C@H]1C(=O)O[C@H](C)[C@H]1[C@H]2/C=C/c1ccc(-c2cccc(F)c2)cn1` [vorapaxar]: in series [2], the cardiovascular events entry is “did not significantly reduce” and the “risk of major bleeding” value was “significantly increased”.
